This is an account of results in patent publication US4015002A, “1-Aryl-2-oxo-2,4,5,6,7,7a-hexahydro-indoles, salts, pharmaceutical compositions and methods of use” (Laboratoire Roger Bellon, priority 1974, dated 1977).

≈ marks a conversion by molar mass, not a printed value. Read-outs that look alike come from different tables or passages of the source.

The test system of one series is anaethestized dog. Put plainly: Action on femoral delivery, aortal pressure and cardiac rhythm in the anaesthetized dog. Format: in vivo. The settings on record: for Aortal pressure, maximum variation in 30 minutes / Cardiac Rhythm, maximum variation in 30 minutes / Femoral Delivery, maximum variation in 30 minutes: i.v. perfusion over 5 min, dose 1/10 of mouse LD50, percent based on initial values; for Aortal pressure (in words) / Cardiac frequency (in words) / Vasodilator action (in words): anaesthetized dog, i.v.; for Vasodilator action (in words): 1/10 of mouse LD50. How it is done: This was investigated in an anaethestized dog, the compounds under test being administered by intraveneous perfusion (over 5 minutes). The various compounds under test were compared by administering all of them at a dose per kilogram corresponding to 1/10 of the mouse LD50 (I.V.).
Simultaneously were measured: variations of femoral delivery, aortal pressure, and cardiac rhythm. Table II indicates the maximum variations of these different parameters observed over the 30 minutes which followed administration of various compounds. These variations are expressed in percent based on the initial values.

A short description of series [1]: Toxicity, intravenous in the mouse. The settings on record: in vivo, i.v. How it is done: The toxicities of the various compound were determined intravenously in the mouse.
Series [2] concerns isolated heart of the rabbit. Kind of series: Cardiac action on the isolated heart of a rabbit (Langendorf preparation). The settings on record: for EC20: Oryctolagus cuniculus, direction arrow is a drawing. The procedure: (§1) This was examined according to known methods in the isolated auricle (Trevan preparation) and in the isolated heart of a rabbit (Langendorf preparation).
In the Langendorf preparation, the action of the compounds was determined from three parameters; the amplitude of contractions, coronary delivery, and rhythm. […] The results are indicated in Table 1; an arrow ↓ indicates a diminution, and an arrow ↑ an augmentation.

The subject of another series is isolated auricle. Kind of series: Cardiac action on the isolated auricle (Trevan preparation): amplitude of contractions. To be noted: arrows for diminution/increase are drawings, 0 = inactive, read-out: Action on the isolated auricle: minimum concentration producing a variation of 20% in amplitude of contractions. The procedure:
as §1
Cardiac action of the compounds in question was evaluated according to the amplitude of contractions of the isolated auricle.

Setting [3] is: read-out: Amplitude of contractions: concentration producing a variation of 20%.
Where [4] appears, read: read-out: Coronary delivery: concentration producing a variation of 20%.
The mark [5] stands for this setting: read-out: Rhythm: concentration producing a variation of 20%.

Take `CCN(CC)CCOc1ccc(N2C(=O)C=C3CCCCC32)cc1` (stereo not shown) [Example 1, 1-[4-(2-diethylaminoethoxy)-phenyl] -2-oxo-2,4,5,6,7,7a-hexahydro-indole]: in the series with anaethestized dog, the “Aortal pressure, maximum variation in 30 minutes” value (from here on “Aortal pressure … in 30 minutes”) amounted to 0% and the “Cardiac Rhythm, maximum variation in 30 minutes” value is listed as 0%. The 50% lethal dose (LD50) (usually the dose expected to kill half of the subjects tested) in series [1] stood at 150 mg/kg. Moreover, the EC20 in series [2] (setting [3]) stood at 5 µg/mL (≈ 15.2 µM). Also, the EC20 in the series with isolated auricle is 20 µg/mL (≈ 60.9 µM).
Turning to `CN(C)CCOc1ccc(N2C(=O)C=C3CCCCC32)cc1` (stereo not shown) [Example 5, 1-[4-(2-Dimethylaminoethoxy)-phenyl]-2-oxo-2,4,5,6,7,7a-hexahydro-indole], the “Aortal pressure … in 30 minutes” value in the series on anaethestized dog turned out to be 0%. In the series on anaethestized dog, the “Femoral Delivery, maximum variation in 30 minutes” value (“Femoral Delivery” below) turned out to be 0%. In series [1], the LD50 came to 90 mg/kg. The EC20 in series [2] (setting [3]) turned out to be 1 µg/mL (≈ 3.33 µM); in series [2] (setting [4]), 20 µg/mL (≈ 66.6 µM); in series [2] (setting [5]), 10 µg/mL (≈ 33.3 µM); in the series with isolated auricle, 50 µg/mL (≈ 166 µM).
Take `O=C1C=C2CCCCC2N1c1ccc(OCCN2CCCCC2)cc1` (stereo not shown) [Example 6, 1-[4-(2-Piperidinoethoxy)-phenyl]-2-oxo-2,4,5,6,7,7a-hexahydro-indole]: in the series with anaethestized dog, the “Aortal pressure … in 30 minutes” value came to 0%. For the same compound, the “Femoral Delivery” value with anaethestized dog amounted to 0%. For the same compound, the LD50 in series [1] was found to be 40 mg/kg. For the same compound, the EC20 amounted to 1 µg/mL (≈ 2.94 µM) in series [2] (setting [3]), 20 µg/mL (≈ 58.7 µM) in series [2] (setting [4]), 20 µg/mL (≈ 58.7 µM) in series [2] (setting [5]) and 10 µg/mL (≈ 29.4 µM) in the series with isolated auricle.
For `CC(C)N(CCOc1ccc(N2C(=O)C=C3CCCCC32)cc1)C(C)C` (stereo not shown) [Example 7, 1-[4-(2Diisopropylaminoethoxy)-phenyl]-2-oxo-2,4,5,6,7,7a-hexahydro-indole], the “Aortal pressure … in 30 minutes” value with anaethestized dog amounted to 0%. Further, the “Cardiac Rhythm, maximum variation in 30 minutes” value in the series on anaethestized dog stood at 0%. The compound further displayed a median lethal dose (LD50) in series [1] of 85 mg/kg. In addition, the EC20 was 1 µg/mL (≈ 2.8 µM) in series [2] (setting [3]), 20 µg/mL (≈ 56.1 µM) in series [2] (setting [5]) and 10 µg/mL (≈ 28 µM) in the series on isolated auricle.
With `CN(C)CCCOc1ccc(N2C(=O)C=C3CCCCC32)cc1` (stereo not shown) [Example 8, 1-[4-(3-Dimethylaminopropoxy)-phenyl]-2-oxo-2,4,5,6,7,7 a-hexahydro-indole], the “Aortal pressure … in 30 minutes” value in the series on anaethestized dog was 0%. In series [1], this compound yielded an LD50 of 85 mg/kg. Moreover, the EC20 turned out to be 1 µg/mL (≈ 3.18 µM) in series [2] (setting [3]), 5 µg/mL (≈ 15.9 µM) in series [2] (setting [5]) and 10 µg/mL (≈ 31.8 µM) with isolated auricle.
As for `O=C1C=C2CCCCC2N1c1cccc(OCCN2CCOCC2)c1` (stereo not shown) [Example 9, 1-[3-(2-Morpholinoethoxy)-phenyl]-2-oxo-2,4,5,6,7,7a-hexahydro-indole], the “Aortal pressure … in 30 minutes” value in the series on anaethestized dog worked out at 0%. This compound gave a median lethal dose (LD50) in series [1] of 170 mg/kg. The “Coronary delivery (in words)” value in series [2] is on record as “augmented”. Besides, the EC20 came to 1 µg/mL (≈ 2.92 µM) in series [2] (setting [3]), 20 µg/mL (≈ 58.4 µM) in series [2] (setting [4]) and 50 µg/mL (≈ 146 µM) in the series with isolated auricle.
On to `O=C1C=C2CCCCC2N1c1cccc(OCCN2CCCCC2)c1` (stereo not shown) [Example 10, 1-[3-(2-piperidinoethoxy)-phenyl]-2-oxo-2,4,5,6,7,7a-hexahydro-indole], for which, in the series with anaethestized dog, the “Aortal pressure (in words)” value is listed as “hypotension”. Further, the “Cardiac frequency (in words)” value in the series on anaethestized dog is recorded as “tachycardia”. Moreover, the “Vasodilator action (in words)” value in the series on anaethestized dog is “vasodilators”. This compound also registered a median lethal dose (LD50) in series [1] of 130 mg/kg. Moreover, the EC20 in series [2] (setting [3]) is 1 µg/mL (≈ 2.94 µM); in series [2] (setting [4]), 20 µg/mL (≈ 58.7 µM); in series [2] (setting [5]), 20 µg/mL (≈ 58.7 µM); with isolated auricle, 5 µg/mL (≈ 14.7 µM).
Consider `CCN(CC)CCOc1cccc(N2C(=O)C=C3CCCCC32)c1` (stereo not shown) [Example 11, 1-[3-(2-Diethylaminoethoxy)-phenyl]-2-oxo-2,4,5,6,7,7a-hexahydro-indole], for which, in the series with anaethestized dog, the “Aortal pressure (in words)” value is recorded as “without modifying aortal pressure”; the “Cardiac frequency (in words)” value is given as “without modifying aortal pressure or cardiac frequency”; the “Vasodilator action (in words)” value is reported as “clearly vasodilators”; the “Aortal pressure … in 30 minutes” value turned out to be 0%. Further, the median lethal dose (LD50) in series [1] was 90 mg/kg. Also, the EC20 in series [2] (setting [3]) came out at 2 µg/mL (≈ 6.09 µM). The EC20 in series [2] (setting [5]) worked out at 10 µg/mL (≈ 30.4 µM). In the series on isolated auricle, the EC20 amounted to 10 µg/mL (≈ 30.4 µM).
With `CN(C)CCOc1cccc(N2C(=O)C=C3CCCCC32)c1` (stereo not shown) [Example 12, 1-[3-(2-Dimethylaminoethoxy)-phenyl]-2-oxo-2,4,5,6,7,7a-hexahydro-indole], in the series with anaethestized dog, the “Aortal pressure (in words)” value is listed as “hypotension”, the “Cardiac frequency (in words)” value was “tachycardia” and the “Vasodilator action (in words)” value is reported as “vasodilators”. In series [1], this compound came in with an LD50 of 27.5 mg/kg. Moreover, in series [2] (setting [3]), the EC20 came out at 1 µg/mL (≈ 3.33 µM). Further, the EC20 in series [2] (setting [5]) amounted to 5 µg/mL (≈ 16.6 µM). Further, in the series with isolated auricle, the EC20 was 10 µg/mL (≈ 33.3 µM).
Regarding `CC(C)N(CCOc1cccc(N2C(=O)C=C3CCCCC32)c1)C(C)C` (stereo not shown) [Example 13, 1-[3-(2-Diisopropylaminoethoxy)-phenyl]-2-oxo-2,4,5,6,7,7a-hexahydro-indole], the “Aortal pressure (in words)” value in the series on anaethestized dog is on record as “hypertensives”. The compound also had an LD50 in series [1] of 55 mg/kg. Further, the EC20 in series [2] (setting [3]) is 1 µg/mL (≈ 2.8 µM); in series [2] (setting [5]), 20 µg/mL (≈ 56.1 µM); in the series with isolated auricle, 5 µg/mL (≈ 14 µM).
As for `O=C1C=C2CCCCC2N1c1ccc(OCCN2CCCCC2)c(Cl)c1` (stereo not shown) [Example 14, 1-[3-chloro-4-(2-piperidinoethoxy)-phenyl]-2-oxo-2,4,5,6,7,7a-hexahydro-indole], in the series with anaethestized dog, the “Aortal pressure (in words)” value is reported as “without modifying aortal pressure”; the “Cardiac frequency (in words)” value is reported as “without modifying aortal pressure or cardiac frequency”; the “Vasodilator action (in words)” value was “clearly vasodilators”; the “Aortal pressure … in 30 minutes” value was 0%. Moreover, the LD50 in series [1] amounted to 25 mg/kg. Besides, in series [2] (setting [3]), the EC20 worked out at 1 µg/mL (≈ 2.67 µM). For the same compound, the EC20 in series [2] (setting [5]) was determined as 20 µg/mL (≈ 53.3 µM). For the same compound, the EC20 in the series on isolated auricle was found to be 10 µg/mL (≈ 26.7 µM).
`CCN(CC)CCOc1ccc(N2C(=O)C=C3CCCCC32)cc1Cl` (stereo not shown) [Example 16, 1-[3-Chloro-4-(2-diethylaminoethoxy)-phenyl]-2-oxo-2,4,5,6,7,7a-hexahydro-indole]: the “Aortal pressure … in 30 minutes” value with anaethestized dog is given as 0%. Also, the LD50 in series [1] was 22 mg/kg. Moreover, the figures for the EC20 (in series [2] (setting [3]); in series [2] (setting [5]); with isolated auricle) were 1 µg/mL (≈ 2.76 µM), 1 µg/mL (≈ 2.76 µM) and 5 µg/mL (≈ 13.8 µM), respectively.
For `O=C1C=C2CCCCC2N1c1ccc(OCCN2CCOCC2)c(Cl)c1` (stereo not shown) [Example 17, 1-[3-Chloro-4-(2-morpholinoethoxy)-phenyl]-2-oxo-2,4,5,6,7,7a-hexahydro-indole], the “Aortal pressure … in 30 minutes” value in the series on anaethestized dog was 0%. In series [1], this compound had an LD50 of 120 mg/kg. Also, the “Coronary delivery (in words)” value in series [2] is “augmented”. The EC20 in series [2] (setting [3]) turned out to be 1 µg/mL (≈ 2.65 µM); in series [2] (setting [4]), 50 µg/mL (≈ 133 µM); in series [2] (setting [5]), 20 µg/mL (≈ 53.1 µM).
With `CC(C)N(CCOc1ccc(N2C(=O)C=C3CCCCC32)cc1Cl)C(C)C` (stereo not shown) [Example 18, 1-[3-Chloro-4-(2-diisopropylaminoethoxy)-phenyl]-2-oxo-2,4,5,6,7,7a-hexahydro-indole], the “Aortal pressure (in words)” value in the series on anaethestized dog is “hypertensives”. Further, the LD50 in series [1] is 150 mg/kg. In addition, the EC20 was determined as 1 µg/mL (≈ 2.56 µM) in series [2] (setting [3]) and 5 µg/mL (≈ 12.8 µM) in the series with isolated auricle.
Turning to `CN(C)CCOc1ccc(N2C(=O)C(c3ccccc3)=C3CCCCC32)cc1` (stereo not shown) [Example 19, 1-[4-(2-Dimethylaminoethoxy)-phenyl]-2-oxo-3-phenyl-2,4,5,6,7,7a-hexahydro-indole], the “Femoral Delivery” value in the series on anaethestized dog came out at 0%. For the same compound, the LD50 in series [1] was 10 mg/kg. The “Coronary delivery (in words)” value in series [2] is “augmented”. In addition, the EC20 in series [2] (setting [3]) stood at 1 µg/mL (≈ 2.66 µM); in series [2] (setting [4]), 5 µg/mL (≈ 13.3 µM); in series [2] (setting [5]) it was 10 µg/mL (≈ 26.6 µM); with isolated auricle it was 20 µg/mL (≈ 53.1 µM).
